Numbers after ± are expanded uncertainties.
Assay: refractive index (Na D-line) (dimensionless); xn = mol fraction of the nth substance listed
Settings: 101 kPa, Liquid, Standard Abbe refractometry

CC(=O)[O-].CCn1cc[n+](C)c1 [1-ethyl-3-methylimidazolium acetate] + CC(C)O
refractive index
Settings	x1 = 0.1	x1 = 0.2	x1 = 0.3	x1 = 0.4	x1 = 0.5001	x1 = 0.5998	x1 = 0.7	x1 = 0.7994	x1 = 0.9	x1 = 1
288.15 K	1.40475 ± 0.004	–	1.43991 ± 0.004	1.45344 ± 0.004	1.4651 ± 0.004	1.47535 ± 0.004	1.48406 ± 0.004	1.4912 ± 0.004	1.49776 ± 0.004	1.50285 ± 0.004
298.15 K	1.40107 ± 0.004	–	1.43669 ± 0.004	1.45075 ± 0.004	1.46242 ± 0.004	1.47243 ± 0.004	1.48131 ± 0.004	1.48861 ± 0.004	1.49526 ± 0.004	1.50069 ± 0.004
308.15 K	1.39762 ± 0.004	1.42276 ± 0.004	1.4336 ± 0.004	1.4475 ± 0.004	–	1.46954 ± 0.004	1.4784 ± 0.004	1.48593 ± 0.004	1.49257 ± 0.004	1.49803 ± 0.004
318.15 K	1.39423 ± 0.004	1.41947 ± 0.004	1.43066 ± 0.004	1.44471 ± 0.004	1.45641 ± 0.004	1.46689 ± 0.004	1.47561 ± 0.004	1.48324 ± 0.004	1.48986 ± 0.004	1.49527 ± 0.004
328.15 K	1.39112 ± 0.004	1.41637 ± 0.004	1.42763 ± 0.004	1.44229 ± 0.004	1.45352 ± 0.004	1.46489 ± 0.004	1.47293 ± 0.004	1.48046 ± 0.004	1.48714 ± 0.004	1.49266 ± 0.004
338.15 K	1.38677 ± 0.004	1.41309 ± 0.004	1.42464 ± 0.004	1.43908 ± 0.004	1.45107 ± 0.004	1.45943 ± 0.004	1.47054 ± 0.004	1.47775 ± 0.004	1.48466 ± 0.004	1.48995 ± 0.004

CC(=O)[O-].CCn1cc[n+](C)c1 [1-ethyl-3-methylimidazolium acetate] + CCCO
refractive index
Settings	x1 = 0.1017	x1 = 0.2004	x1 = 0.3001	x1 = 0.3998	x1 = 0.4997	x1 = 0.5996	x1 = 0.6998	x1 = 0.8002	x1 = 0.8991	x1 = 1
288.15 K	1.41146 ± 0.00035	1.42938 ± 0.00036	1.44451 ± 0.00037	1.45711 ± 0.00039	1.46775 ± 0.00041	1.47687 ± 0.00043	1.485 ± 0.00045	1.49189 ± 0.00047	1.49712 ± 0.0005	1.50285 ± 0.00053
298.15 K	1.40825 ± 0.00035	1.42622 ± 0.00036	1.44134 ± 0.00037	1.45401 ± 0.00039	1.46473 ± 0.00041	1.47411 ± 0.00043	1.48219 ± 0.00045	1.48919 ± 0.00047	1.49506 ± 0.0005	1.50069 ± 0.00053
308.15 K	1.40453 ± 0.00035	1.42291 ± 0.00036	1.43827 ± 0.00037	1.45119 ± 0.00039	1.46189 ± 0.00041	1.47127 ± 0.00043	1.47942 ± 0.00045	1.48632 ± 0.00047	1.49221 ± 0.0005	1.49803 ± 0.00053
318.15 K	1.40109 ± 0.00035	1.41973 ± 0.00036	1.43523 ± 0.00037	1.44803 ± 0.00039	1.45888 ± 0.00041	1.4683 ± 0.00043	1.47661 ± 0.00045	1.48365 ± 0.00047	1.48899 ± 0.0005	1.49527 ± 0.00053
328.15 K	1.39753 ± 0.00035	1.41631 ± 0.00036	1.43208 ± 0.00037	1.44542 ± 0.00039	1.45593 ± 0.00041	1.4657 ± 0.00043	1.47372 ± 0.00045	1.48089 ± 0.00047	1.48673 ± 0.0005	1.49266 ± 0.00053
338.15 K	1.39391 ± 0.00035	1.41301 ± 0.00036	1.4291 ± 0.00037	1.44211 ± 0.00039	1.45308 ± 0.00041	1.46267 ± 0.00043	1.4711 ± 0.00045	1.47818 ± 0.00047	1.48324 ± 0.0005	1.48995 ± 0.00053
348.15 K	1.39115 ± 0.00036	1.41033 ± 0.00036	1.42601 ± 0.00037	1.43912 ± 0.00039	1.45026 ± 0.00041	1.45993 ± 0.00043	1.46823 ± 0.00045	1.47546 ± 0.00047	1.4803 ± 0.0005	1.48721 ± 0.00053
